Assay results from patent US5162335A, “Di- and tetrahydroisoquinoline derivatives” (Duphar International Research B.V., priority 1986, dated 1992).

The compounds below were run on human cell lines: breast MCF7 and HTB26, colon WIDR and HTB38, lung HTB53, melanoma HTB66, and uterus HTB114 (assay: Clonogenic assay with human cell lines (test 2)). Conditions: treatment approximately three times the cell cycle, more particularly the D-enantiomers, read-out: ID75 in the clonogenic assay (test 2).
Type: cell-based
Protocol: 2. CLONOGENIC ASSAY WITH HUMAN CELL LINES
The following human cell lines are used: breast MCF7 and HTB26, colon WIDR and HTB38, lung HTB53, melanoma HTB66, and uterus HTB114.
As comparative substances are used cisplatinum, 5-fluorouracil, daunomycine, bleomycine and adriamycine.
During providing the cells or after a pre-incubationperiod of one night, the compound to be tested is added as a solution or suspension in 0.5% CMC/saline solution in a dose range with a maximum concentration of 15 μg/ml.
The duration of the treatment is approximately three times the cell cycle. The cells are then fixed, coloured and evaluated for the presence of the colonies. The formation of colonies is expressed in the number of colonies which is present on the treated dishes as a perecentage of the number of colonies which is present on control dishes.

Row | SMILES | IC75 [µg/mL]
1 | COc1cc([C@H]2N[C@@H](CO)Cc3c2ccc2ccccc32)cc(OC)c1OC (relative stereo) [Example 23] | < 1
2 | COc1cc([C@H]2c3ccc4ccccc4c3C[C@H]3COC(=O)N32)cc(OC)c1OC (relative stereo) [Example 81] | < 1
3 | COc1cc([C@H]2c3c(ccc4ccccc34)C[C@H]3COC(=O)N32)cc(OC)c1OC (relative stereo) [Example 82] | < 1
4 | COc1cc([C@H]2N[C@@H](CO)Cc3cc4c(cc32)OCCO4)cc(OC)c1OC [Example 20] | < 1
5 | COc1cc([C@@H]2c3cc4c(cc3C[C@@H]3COS(=O)N32)OCO4)cc(OC)c1OC (stereo partly drawn) [Example 55] | < 1
6 | COc1cc([C@@H]2c3cc4c(cc3C[C@@H]3CN(C)[S+]([O-])N32)OCO4)cc(OC)c1OC (stereo partly drawn) [Example 70] | < 1
7 | COc1cc([C@@H]2c3cc4c(cc3C[C@@H]3COC(=O)N32)OCCO4)cc(OC)c1OC [Example 79] | < 1
8 | COc1cc(OC)c([C@H]2c3cc4c(cc3C[C@H]3COC(=O)N32)OCCO4)cc1OC [Example 80] | < 1
9 | COc1cc([C@H]2N[C@@H](C(N)=O)Cc3cc4c(cc32)OCCO4)cc(OC)c1OC [Example 110] | < 1
